In one assay the test system is human cytomegalovirus (HCMV) strain Davis. As to the kind of experiment: Anti-HCMV assay in HEL fibroblasts. The settings on record: HCMV replication in cell culture. The format is cell-based.
Regarding `C[C@H](NC(=O)[C@@]1(Cc2ccccc2)CCN1C(=O)OCc1ccccc1)C(=O)NC(C)(C)C` [(R,S)-4a, (2R,1’S)-2-Benzyl-1-benzyloxycarbonyl-2-[(1’-tert-butylcarbamoyl)ethyl]carbamoyl-azetidine], the “anti-HCMV activity (in words)” value is given as “retain the anti-HCMV activity”.

For `CC(C)C[C@H](NC(=O)[C@@]1(Cc2ccccc2)CCN1C(=O)OCc1ccccc1)C(N)=O` [(R,S)-7d, (2R,1’S)-2-Benzyl-1-benzyloxycarbonyl-2-[(1’-carbamoyl-3’-methyl)butyl]carbamoyl-azetidine], the “anti-HCMV activity (in words)” value is “maintain measurable anti-HCMV activity”.

As for `C[C@@H](NC(=O)[C@]1(Cc2ccccc2)CCN1C(=O)OCc1ccccc1)C(N)=O` [(S,R)-7a, (2S,1’R)-2-Benzyl-1-benzyloxycarbonyl-2-[(1’-carbamoyl)ethyl]carbamoylazetidine], the “anti-HCMV activity (in words)” value was “maintain measurable anti-HCMV activity”.

Regarding `C[C@H](NC(=O)[C@]1(Cc2ccccc2)CCN1C(=O)OCc1ccccc1)C(=O)NC(C)(C)C` [(S,S)-4a, (2S,1’S)-2-Benzyl-1-benzyloxycarbonyl-2-[(1’-tert-butylcarbamoyl)ethyl]carbamoyl-azetidine], the “anti-HCMV activity (in words)” value is listed as “retain the anti-HCMV activity”.

For `CC(C)CNC(=O)[C@H](C)NC(=O)[C@]1(Cc2ccccc2)CCN1C(=O)OCc1ccccc1` [(S,S)-4c, (2S,1’S)-2-Benzyl-1-benzyloxycarbonyl-2-[(1’-isobutylcarbamoyl)ethyl]carbamoyl-azetidine], the “anti-HCMV activity (in words)” value is on record as “retain the anti-HCMV activity”.

On to `CC(C)[C@H](NC(=O)[C@]1(Cc2ccccc2)CCN1C(=O)OCc1ccccc1)C(N)=O` [(S,S)-7c, (2S,1’S)-2-Benzyl-1-benzyloxycarbonyl-2-[(1’-carbamoyl-2’-methyl)propyl]carbamoyl-azetidine], for which the “anti-HCMV activity (in words)” value is “maintain measurable anti-HCMV activity”.

On to `C[C@H](NC(=O)[C@]1(Cc2ccccc2)CCN1C(=O)OCC1c2ccccc2-c2ccccc21)C(N)=O` [(S,S)-10a, (2S,1’S)-2-Benzyl-2-[(1’-carbamoyl)ethyl]carbamoyl-1-(9-fluorenylmethoxy)carbonyl-azetidine], for which the “anti-HCMV activity (in words)” value is “inactive against HCMV”.

Consider `C[C@H](NC(=O)[C@]1(Cc2ccccc2)CCN1C(=O)NCc1ccccc1)C(N)=O` [(S,S)-10h, (2S,1’S)-2-Benzyl-1-benzylcarbamoyl-2-[(1’-carbamoyl)ethyl]carbamoylazetidine], for which the “anti-HCMV activity (in words)” value is “inactive”.

For `C[C@H](NC(=O)[C@]1(Cc2ccccc2)CCN1C(=O)N[C@@H](C)c1ccccc1)C(N)=O` [(S,S)-10i, (2S,1’S,1’’S)-2-Benzyl-2-[(1’’-carbamoyl)ethyl]carbamoyl-1-[(1’-phenyl)ethyl]carbamoyl-azetidine], the “anti-HCMV activity (in words)” value is “inactive”.

Consider `C[C@H](NC(=O)[C@H](Cc1ccccc1)NC(=O)OCc1ccccc1)C(N)=O` [compound 11, Z-Phe-Ala-NH2], for which the “anti-HCMV activity (in words)” value was “unable to inhibit the replication of HCMV”.

Consider `C[C@H](NC(=O)[C@H](Cc1ccccc1)NC(=O)OCc1ccccc1)C(=O)NC(C)(C)C` [compound 12, Z-Phe-Ala-NH^tBu], for which the “anti-HCMV activity (in words)” value is “unable to inhibit the replication of HCMV”.

For the compound “(2S,1’S)-2-Benzyl-2-[(1’-carbamoyl)ethyl]carbamoyl-1-phenetylcarbonylazetidine [(S,S)-10g]”, the “anti-HCMV activity (in words)” value is “inactive”.

Still in this assay, the particulars now being: read-out: EC50 HCMV; Davis strain, 100 PFU, HEL fibroblasts, 7 days.
For orientation: EC50 means the concentration needed to bring the measured effect to its halfway point. As to “(2S,1’S)-2-Benzyl-2-[(1’-carbamoyl)ethyl]carbamoyl-1-(4-nitrobenzyloxy)carbonyl-azetidine [(S,S)-10c]”, the EC50 was greater than 20 µM.

For “(2S,1’S)-2-Benzyl-2-[(1’-carbamoyl)ethyl]carbamoyl-1-phenetylcarbonylazetidine [(S,S)-10g]”, the concentration giving a half-maximal response (EC50) was greater than 100 µM.

These data come from PMC7127091 (Bioorganic & Medicinal Chemistry, 2010).
